# Measured values reported in patent US20250340701A1, “DENDRIMER-DELIVERED ALPHA-PARTICLE RADIOTHERAPY FOR TREATMENT OF GLIOBLASTOMA AND OTHER CANCERS IN THE BRAIN” (priority 2022, published 2025).
# Tested on: GL261 glioblastoma cells
# Assay: Colony survival measurement, GL261 glioblastoma cells
# Assay type: cell-based, murine
# Procedure: GL261 glioblastoma cells were incubated with different radioactivity concentrations of ^225Ac-DOTA dendrimer; cells were plated for colony survival measurement.
# Cells, plated at 500,000 cells per well, were plated in 6-well plates and were allowed to adhere overnight before being incubated with varying concentrations of radioactivity (4.63, 9.25, 18.5, 37, 74 kBq/mL) at pH 7.4 for a duration of 6 hours. In case of the combination runs with temozolomide (TMZ), the free drug incubation at respective concentrations, was performed simultaneously with the radioactivity for a duration of 6 hours. […] Once cell colonies were observed (approximately 6 weeks for the cancer cells and approximately 3 weeks for the macrophages), the media was removed, dishes were washed with water, and the colonies were fixed and stained using 6% (w/v) glutaraldehyde and 0.05% (w/v) Crystal violet, respectively, following which they were counted using a colony counter pen. The number of colonies counted for each of the treatment groups was then normalized by the number of colonies from the control group to obtain the survival fraction, while accounting for the plating efficiency. The same procedure was used to obtain the survival fractions for free chemotherapeutic treatment, replacing the radioactivity concentrations with free chemotherapeutic concentration while incubating the cells. […]
compound,measurement,setting,value
O=C([O-])CN1CCN(CC(=O)[O-])CCN(CC(=O)[O-])CCN(CC(=O)[O-])CC1.[225Ac+3] [^225Ac-DOTA],colony survival fraction of GL261 cells versus resting and activated BV2 macrophages,FIG. 8 left,significantly lower
same,GL261 colony survival fraction in the presence of TMZ versus without TMZ,"TMZ incubated simultaneously for 6 hours, at 2.1-3.7 times less than its IC50, FIG. 10 left, FIG. 12",lower
